Measurements from patent publication US8673910B2, “Proteasome inhibitors for selectively inducing apoptosis in cancer cells” (H. Lee Moffitt Cancer Center and Research Institute, priority 2008, dated 2014).
Where “and” joins values, the source holds several entries; their conditions need not be identical. Equal entries are not always repeated.

Columns and labels:
[1] = target: T1, chymotrypsin-like (CT-L) activity of purified 20S rabbit proteasome (Oryctolagus cuniculus, UniProt G1T4Q9); experiment: Proteolytic activity of purified 20S proteasome, fluorogenic substrate Suc-Leu-Leu-Val-Tyr-AMC; type: biochemical; conditions: purified rabbit 20S proteasome
T1 sequence (G1T4Q9 1-263): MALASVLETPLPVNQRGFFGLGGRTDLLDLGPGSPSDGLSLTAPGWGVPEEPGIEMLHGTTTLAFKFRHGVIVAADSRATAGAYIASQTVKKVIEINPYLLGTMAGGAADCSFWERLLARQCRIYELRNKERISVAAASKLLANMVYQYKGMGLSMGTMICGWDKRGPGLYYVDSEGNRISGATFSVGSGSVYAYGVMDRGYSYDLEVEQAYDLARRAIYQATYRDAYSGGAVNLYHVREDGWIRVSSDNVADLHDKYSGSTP

[2] = test system: MCF-7 breast cancer cells; experiment: MTT metabolism assay; type: cell-based, human; conditions: Homo sapiens, MCF7, 72 h, MCF-7, 72 h (Table 6); read-out: IC50 for cell viability measured by MTT assay in MCF-7 human breast cancer cells
Procedure: Cells were plated in 96-well plates in 100 μl medium and allowed to attach overnight. […] Media was aspirated after 24 or 72 hours and replaced with 100 μl complete media containing 1 mg/ml MTT and incubated for three hours at 37° C. in 5% CO2 humidified incubator. Media was then aspirated and DMSO was added. Cells were incubated for 10 min at room temperature while shaking, and the absorbance was determined at 540 nm using a μQuant spectrophotometric plate reader (Bio-TEK, Winooski, Vt.).
Cells were plated in 96-well plates in 100 μl medium and allowed to attach overnight. Cells were then incubated for 72 h with varying concentrations of PI-083, YG1-080, YG1-075, HL2-090-2, HL2-090-4, HL2-090-6, and HL2-090-9 or vehicle control (DMSO). Media was aspirated and replaced with 100 μl complete media containing 1 mg/ml MTT and incubated for three hours at 37° C. in 5% CO2 humidified incubator. Media was then aspirated and DMSO was added. Cells were incubated for 10 min at room temperature while shaking, and the absorbance was determined at 540 nm using a μQuant spectrophotometric plate reader (Bio-TEK, Winooski, Vt.).

[3] = target: T2, CT-L activity of the proteasome in MCF-7 human breast cancer cells (Homo sapiens, UniProt P20618+P28074); experiment: Proteolytic activity in cell lysates of treated intact MCF-7 cells; type: cell-based; conditions: intact cells treated 16 h, CT-L measured in cell lysates; two determinations where two values
T2 construct: endogenous in cells; host or cells: MCF-7
Procedure: Human MCF-7 breast cancer cells were cultured in DMEM medium containing 10% fetal calf serum (FCS) and 100 units/ml of penicillin and 100 μg/ml of streptomycin. Cells were maintained at 37° C. in a humidified incubator in an atmosphere of 5% CO2. Cells were treated with different concentrations of PI-083, YG1-080, YG1-075, HL2-090-2, HL2-090-4, HL2-090-6, and HL2-090-9 or vehicle control (DMSO) for 16 h.
Intact cells were treated with compounds and lysates prepared as described above. Cell lysates (5 μg) was incubated with 20 μM Suc-Leu-Leu-Val-Tyr-AMC for the CT-L activity for 1 h at 37° C. in 100 μl of assay buffer (50 mM Tris-HCl, pH 7.6). After incubation, production of hydrolyzed 7-amido-4-methyl-coumarin (AMC) groups was measured using a WALLAC Victor^2 1420 Multilabel Counter with an excitation filter of 355 nm and an emission filter of 460 nm (Perkin Elmer Life Sciences, Turku, Finland).

IC50 ([1]; PI-083 derivatives (Table 7, naphthoquinone library), read-out: IC50 (μM) Chymotrypsin-like activity): 1.1 µM | proteasome (chymotrypsin-like) inhibitory activity, in words [1]: equally as active as PI-083 | IC50 [2]: 2.41 ± 0.19 µM | IC50 [3]: 5.1 µM and 4.7 µM | melting point: > 300 °C
Compound: NS(=O)(=O)c1ccc(NC2=C(Cl)C(=O)c3ccccc3C2=O)cc1 [Compound 2t, 4-(3-chloro-1,4-dioxo-1,4-dihydronaphthalen-2-ylamino)benzenesulfonamide]
